According to the supplement of paper PMC11061612:

What was measured:
Assay in all cases: combination Emax (second highest fraction inhibited in the dose matrix, 72 h); higher = more inhibition; extreme values may be limits of the assay
WIL2-NS (Non-Cancerous) = tested on: WIL2-NS (Non-Cancerous)
In short: (§1)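 Cell lines grown in DMEM/F12 or RPMI with 10% FBS were plated in 1536-well plates and held 24 hours at 37°C, 5% CO2 before 72 hours of exposure to two-drug dose matrices, with DMSO typically at 0.2%. CellTiter-Glo 2.0 luminescence gave viability, which was converted to inhibition. Vehicle wells were set to 0 and blank wells to 1. Combination Emax is the second-highest inhibition in the matrix, and Bliss excess is the observed combination effect minus the expected EA + EB − EA·EB, where EA and EB are the single-agent effects.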

[1] = tested on: PANC-08-13 (Pancreatic Carcinoma)
In short: as §1

[2] = tested on: P12-ICHIKAWA (T-Lymphoblastic Leukemia)
In short: as §1

U251 (Low Grade Glioma) = tested on: U251 (Low Grade Glioma)
In short: as §1

[3] = tested on: EVSA-T (Breast Carcinoma)
In short: as §1

[4] = tested on: KM12 (Colorectal Carcinoma)
In short: as §1

[5] = tested on: DND-41 (T-Lymphoblastic Leukemia)
In short: as §1

[6] = tested on: CAMA-1 (Breast Carcinoma)
In short: as §1

NCI-H2818 (Mesothelioma) = tested on: NCI-H2818 (Mesothelioma)
In short: as §1

CHP-212 (Neuroblastoma) = tested on: CHP-212 (Neuroblastoma)
In short: as §1

WM-115 (Melanoma) = tested on: WM-115 (Melanoma)
In short: as §1

[7] = tested on: NCI-H1792 (Lung Adenocarcinoma)
In short: as §1

[8] = tested on: HDQ-P1 (Breast Carcinoma)
In short: as §1

[9] = tested on: K-562 (Chronic Myelogenous Leukemia)
In short: as §1

[10] = tested on: COLO-678 (Colorectal Carcinoma)
In short: as §1

[11] = tested on: KYSE-180 (Esophageal Squamous Cell Carcinoma)
In short: as §1

[12] = tested on: BL-41 (Burkitt's Lymphoma)
In short: as §1

[13] = tested on: KCL-22 (Chronic Myelogenous Leukemia)
In short: as §1

[14] = tested on: MKN28 (Gastric Carcinoma)
In short: as §1

[15] = tested on: BFTC-905 (Bladder Carcinoma)
In short: as §1

| Structure (SMILES) | combination Emax (WIL2-NS (Non-Cancerous)) | combination Emax [1] | combination Emax [2] | combination Emax (U251 (Low Grade Glioma)) | combination Emax [3] | combination Emax [4] | combination Emax [5] | combination Emax [6] | combination Emax (NCI-H2818 (Mesothelioma)) | combination Emax (CHP-212 (Neuroblastoma)) | combination Emax (WM-115 (Melanoma)) | combination Emax [7] | combination Emax [8] | combination Emax [9] | combination Emax [10] | combination Emax [11] | combination Emax [12] | combination Emax [13] | combination Emax [14] | combination Emax [15] |
| --- | --- | --- | --- | --- | --- | --- | --- | --- | --- | --- | --- | --- | --- | --- | --- | --- | --- | --- | --- | --- |
| Cn1cnc2c(F)c(Nc3ccc(Br)cc3Cl)c(C(=O)NOCCO)cc21 [Selumetinib] + C[C@@H]1COCCN1C2=NC(=NC(=C2)C3(CC3)[S@](=N)(=O)C)C4=C5C=CNC5=NC=C4 [AZD6738] (first compound max 10 µM, 7x7, partner max 10 µM) | 0.922 | 0.239 | 0.988 | 0.443 | 0.222 | 0.825 | 0.897 | 0.319 | 0.252 | 0.989 | 0.617 | 0.76 | 0.455 | 0.866 | 0.466 | 0.393 | 0.989 | 0.984 | 0.202 | 0.784 |
| CN(CCO)CC[C@H](CSc1ccccc1)Nc1ccc(S(=O)(=O)NC(=O)c2ccc(N3CCC([C@@H](O)c4ccccc4-c4ccc(Cl)cc4)CC3)cc2)cc1S(=O)(=O)C(F)(F)F [AZD4320] + C[C@@H](Nc1cc(F)cc(F)c1)c1cc(C(=O)N(C)C)cc2c(=O)cc(N3CCOCC3)oc12 [AZD8186] (first compound max 1 µM, 7x7, partner max 3 µM) | 0.652 | 0.481 | 1 | 0.635 | 0.885 | 0.315 | 1 | 0.84 | 0.365 | 0.752 | 0.914 | 0.323 | 0.787 | 0.313 | 0.344 | 0.177 | 0.745 | 0.33 | 0.263 | 0.851 |
| NC1(C(=O)N[C@@H](CCO)c2ccc(Cl)cc2)CCN(c2ncnc3[nH]ccc23)CC1 [Capivasertib] + CC(=O)c1c(C)c2cnc(Nc3ccc(N4CCNCC4)cn3)nc2n(C2CCCC2)c1=O [Palbociclib] (first compound max 10 µM, 7x7, partner max 10 µM) | 0.849 | 0.308 | 0.739 | 0.441 | 0.942 | 0.853 | 0.462 | 0.668 | 0.316 | 0.556 | 0.574 | 0.553 | 0.302 | 0.257 | 0.354 | 0.572 | 0.419 | 0.612 | 0.155 | 0.397 |
| CC1(C)CCC(CN2CCN(c3ccc(C(=O)NS(=O)(=O)c4ccc(NCC5CCOCC5)c([N+](=O)[O-])c4)c(Oc4cnc5[nH]ccc5c4)c3)CC2)=C(c2ccc(Cl)cc2)C1 [Venetoclax] + CN(C)CCCOc1ccc(-c2ccc3ncc4c(c3c2)n(C2CCOCC2)c(=O)n4C)cn1 [AZD0156] (first compound max 1 µM, 7x7, partner max 1 µM) | 0.804 | 0.189 | 0.224 | 0.227 | 0.213 | 0.17 | 0.893 | 0.145 | 0.284 | 0.17 | 0.179 | 0.223 | 0.139 | 0.374 | 0.187 | 0.155 | 0.163 | 0.212 | 0.26 | 0.588 |
| CC1(C)CCC(CN2CCN(c3ccc(C(=O)NS(=O)(=O)c4ccc(NCC5CCOCC5)c([N+](=O)[O-])c4)c(Oc4cnc5[nH]ccc5c4)c3)CC2)=C(c2ccc(Cl)cc2)C1 [Venetoclax] + CCN(CCO)CCCOc1ccc2c(Nc3cc(CC(=O)Nc4cccc(F)c4)[nH]n3)ncnc2c1 [AZD2811] (first compound max 1 µM, 7x7, partner max 1 µM) | 0.857 | 0.212 | 1 | 0.274 | 0.427 | 0.17 | 0.94 | 0.224 | 0.251 | 0.74 | 0.211 | 0.216 | 0.172 | 0.393 | 0.245 | 0.233 | 0.604 | 0.376 | 0.221 | 0.354 |
| Cc1c2c(nn1C)CSCc1cc(n(C)n1)CSc1cc(c3ccccc3c1)OCCCc1c(C(=O)O)n(C)c3c-2c(Cl)ccc13 [AZD5991] + Cc1cc2ncnn2cc1Nc1ncc2c(n1)n(C1CCOCC1)c(=O)n2C [AZD7648] (first compound max 1 µM, 7x7, partner max 10 µM) | 0.41 | 0.238 | 1 | 0.229 | 1 | 0.208 | 0.164 | 0.742 | 0.48 | 0.831 | 0.357 | 0.441 | 0.257 | 0.182 | 0.152 | 0.9 | 1 | 0.94 | 0.25 | 0.211 |
